{"source": "patent US20250017907A1", "about": "“METHOD FOR PREVENTING AND/OR TREATING LIVER FIBROSIS BY USING 6-METHOXYBENZOXAZOLINONE AND COIX LACHRYMA-JOBI L. EXTRACT COMPRISING 6-METHOXYBENZOXAZOLINONE” (Taichung District Agricultural Research and Extension …, priority 2023, published 2025)", "key": {"[1]": {"tested_on": "TGF-β1-activated HSC-T6 cells", "assay": "Western blot of fibrotic and EMT-related proteins", "format": "cell-based, rat", "conditions": "HSC-T6, TGF-β1 10 ng/mL, 24 h", "protocol": "(§1) The procedure of cell cultures is as follows. HSC-T6 cell is an immortalized cell line isolated from transformed SV40 large T-antigen transformed primary stellate cells of male Sprague-Dawley rats. HSC-T6 cells were maintained in Dulbecco's Modified Eagle Medium (DMEM, Sigma-Aldrich, USA) containing 8% fetal bovine serum (FBS, HyClone, USA), 100 U/mL of penicillin, and 100 μg/mL of streptomycin (Gibco, USA).\n(§2) For hepatic stellate cell (HSC) activation, cells were cultured for 24 h and then replaced with serum-free medium for 24 h, after that, treated with transforming growth factor beta 1 (TGF-β1) (10 ng/mL) in the presence or absence of CX (10-100 μM) or adlay leaf, root, and seed extracts (25 and 50 μg/mL) for 24 h, or 30 min for intracellular signal pathways.\n(§3) The procedure of Western blot analysis is as follows. Cells were lysed in RIPA buffer with protease inhibitor and then centrifuged at 4° C., 12000 rpm for 10 min. Collected the supernatant and quantified the total protein concentration to 50 μg. After heating at 95° C. for 10 min, the protein samples were separated by SDS-PAGE gel, transferred to PVDF membrane, followed by blocking with 6% milk, incubated with primary antibodies at 4° C., overnight and secondary antibodies at room temperature for 1 h. Blot images were visualized on Amersham Imager 680 (Cytiva, USA) with ECL agent (GeneDireX, USA)."}, "[2]": {"tested_on": "TGF-β/SMAD signaling pathway", "assay": "Western blot of TGF-β/SMAD signaling pathway proteins", "format": "cell-based, rat", "conditions": "HSC-T6, TGF-β1 10 ng/mL, CX 10-100 μM", "protocol": "as §1, §2, §3"}, "[3]": {"tested_on": "TAA-induced liver fibrotic C57BL/6J mice", "assay": "Hydroxyproline assay of liver tissue", "format": "in vivo", "conditions": "CX groups (20 and 50 mg/kg oral, 6 weeks); vs TAA group", "protocol": "For tests of adlay extracts, mice were randomly divided into the following seven groups (n=6, per group): (1) No treatment group (NT, normal diet), (2) Thioacetamide group (TAA, 200 mg/kg, normal diet), (3) 10% adlay seed powder (ASP) group, (4) 1% adlay leaf powder (ALP) group, (5) 1% adlay seed polysaccharide (ASPS) group, (6) 0.025% adlay seed ethanolic extract (ASE) group and (7) 0.1% ASE group. NT group received pure saline, and other groups intraperitoneally injected with TAA dissolved into saline thrice a week.\nFor tests of CX, mice were randomly divided into the following four groups (n=8, per group): (1) NT group, (2) TAA group (200 mg/kg), (3) CX group (CX20, 20 mg/kg), and (4) CX group (CX50, 50 mg/kg). NT group received pure saline, and other groups intraperitoneally injected with TAA dissolved into saline thrice a week. Moreover, NT group and TAA group also received 5% propylene glycol, while CX groups received CX dissolved into 5% propylene glycol (prepared in 0.9% saline) by oral gavage once per day. […]\nThe procedure of hydroxyproline assay is as follows. The hydroxyproline, as an indirect index of the collagen content in the liver, was determined by a hydroxyproline assay kit and the testing procedures followed the manufacturer's protocol. […] The hydroxyproline content was measured at a wavelength of 558 nm on an ELISA reader (TECAN, Switzerland). […]"}}}
{"smiles": "COc1ccc2[nH]c(=O)oc2c1", "note": "[CX, 6-methoxybenzoxazolinone]", "values": [{"measurement": "TGF-β1-induced COL1A1 expression (Western blot)", "setting": "[1]; CX 10-100 μM", "value": "reduced"}, {"measurement": "TGF-β1-induced fibronectin expression (Western blot)", "setting": "[1]; CX 10-100 μM", "value": "reduced"}, {"measurement": "TGF-β1-induced α-SMA expression (Western blot)", "setting": "[1]; CX 10-100 μM", "value": "reduced"}, {"measurement": "E-cadherin expression (Western blot)", "setting": "[1]; CX even at the lowest dose (10 μM)", "value": "significantly enhanced"}, {"measurement": "NOX4 expression (Western blot)", "setting": "[2]", "value": "decreased"}, {"measurement": "SNAIL1/2 expression (Western blot)", "setting": "[2]", "value": "decreased"}, {"measurement": "TWIST1/2 expression (Western blot)", "setting": "[2]", "value": "decreased"}, {"measurement": "ZEB1 expression (Western blot)", "setting": "[2]", "value": "decreased"}, {"measurement": "TGF-β1-stimulated SMAD2 phosphorylation (p-SMAD2, Western blot)", "setting": "[2]; 30 min", "value": "decreased with increasing dose"}, {"measurement": "TGF-β1-stimulated SMAD3 phosphorylation (p-SMAD3, Western blot)", "setting": "[2]; 30 min", "value": "decreased with increasing dose"}, {"measurement": "liver hydroxyproline content", "setting": "[3]", "value": "significantly lower"}]}
